system: Human Leukocyte Lipoxygenase; assay: Human Leukocyte Lipoxygenase Assay (LDA-H); type: biochemical; conditions: Concentration 1.00 E -5 M
Experimental: Human Leukocyte Lipoxygenase Assay (LDA-H)
Whole blood is collected from normal volunteers and spun in a refrigerated centrifuge for four minutes at 1°-6° C. at 3800 g. The buffy coat is manually separated and washed twice with chilled 0.83% NH4 Cl and centrifuged at 1000 RPM for ten minutes at 4° C. The white cell is suspended in culture media-EMEM supplemented with 6% Agamma human serum, tricine buffer, and neomycin and recentrifuged at 1000 g to yield a pellet containing the leukocytes used for the preparation of the acetone pentane powder.
The acetone-pentane powder is prepared utilizing a modification of the procedure reported for human platelet lipoxygenase. See Siegel, et al, Arachidonate Metabolism via Lipoxygenase and 12-L-hydroperoxy-5 Eicosatetraenoic Acid Peroxidase Sensitive to Antiinflammatory Drugs, Proc. Natl. Acad. Sci., USA 77: 308, 1980 and D. P. Wallach and V. R. Brown, A Novel Preparation of Human Platlet Lipoxygenase, Biochem. Biophys. Acta. 663: 361, 1981. Buffy coat prepared above is resuspended in 5-7 volumes of cold 0.1M Tris buffer, pH 7.4 containing 0.154M NaCl. The suspension is centrifuged at 13,300 g for ten minutes at 4° C. The resultant pellet is retained, resuspended in five volumes of cold acetone, recentrifuged at 13,300 g and resuspended in five volumes of cold pentane. The pentane suspension is centrifuged for ten minutes at 13,300 g to give a pellet which is dried in the cold under vacuum with periodic pulverization. The dry powder is stable for several weeks when stored at -80° C.
Enzyme stock solution is prepared in the following manner. About 15 mg of the acetone-pentane powder is suspended in 4 ml of cold tris buffer (0.1M, pH 7.4), allowed to stand for five minutes, and homogenized thoroughly. The homogenate is sonicated three times for 15 seconds each time, diluted to 7 ml with cold tris buffer (0.1M, pH 7.4), and centrifuged at 4° C. for 60 minutes at 13,300 g. the supernatent is retained and diluted to a total of 10 ml with cold tris buffer (0.1M, pH 7.4) to give the stock enzyme solution. Additional dilutions of 2-50 fold are done as necessary to locate optimal enzyme reaction rate in the assay described below.
Substrate solution is prepared at 100 μM or 1.0 μM concentrations of arachidonic acid or linoleic acid in 0.1M tris buffer, pH 9.0 containing 20% ethanol.
The enzyme reaction is followed spectrophotometrically by the appearance of a conjugated diene product at 234 nm. The reaction is monitored at 24° C. using a Gilford Model 2600 spectrophotometer. […] The effects of inhibitors on the reaction are compared with control reactions run under indentical conditions. Routinely, each compounds of the present invention is incubated with the enzyme for five minutes prior to addition of substrate to initiate the reaction. Inhibition expressed as IC50 as molar concentration of the compound required to reduce reaction rate to 50% control.

| % Inhibition (LDAH) | Compound |
| --- | --- |
| 0.0% | COc1ccc(CCc2ccc(NC(=O)C(=O)C3=C(O)c4ccccc4S(=O)(=O)C3)cc2)cc1OC [Example 3, N-[4-[2-(3,4-Dimethoxyphenyl)ethyl)phenyl]-4-hydroxy-α-oxo-2H-1-benzothiopyran-3-acetamide, 1,1-dioxide] |

same assay, conditions: Concentration 2.50 E -5 M

| % Inhibition (LDAH) | Compound |
| --- | --- |
| 0.0% | COc1ccc(CCc2ccc(NC(=O)C(=O)C3=C(O)c4ccccc4S(=O)(=O)C3)cc2)cc1OC [Example 3, N-[4-[2-(3,4-Dimethoxyphenyl)ethyl)phenyl]-4-hydroxy-α-oxo-2H-1-benzothiopyran-3-acetamide, 1,1-dioxide] |
| 0.0% | O=C(Nc1ccc(Cc2ccc(O)c(O)c2)cc1)C1CS(=O)(=O)c2ccccc2C1=O (stereo not shown) [Example 14, N-[4-[(3,4-Dihydroxyphenyl)methyl]phenyl]-3,4-dihydro-4-oxo-2H-1-benzothiopyran-3-carboxamide, 1,1-dioxide] |
| 0.0% | O=C(Nc1ccc(CCCCc2ccc(O)c(O)c2)cc1)C1CS(=O)(=O)c2ccccc2C1=O (stereo not shown) [Example 23, N-[4-[4-(3,4-Dihydroxyphenyl)butyl]phenyl]-3,4-dihydro-4-oxo-2H-1-benzothiopyran-3-carboxamide, 1,1-dioxide] |
| 0.0% | O=C(Nc1ccc(CCc2cc(O)c(O)c(O)c2)cc1)C1=C(O)c2ccccc2S(=O)(=O)C1 [Example 36] |
| 0.0% | COc1ccc(CCc2ccc(NC(=O)C(=O)C3Oc4cc5ccccc5cc4C3=O)cc2)cc1OC (stereo not drawn) [Example 117, Naptho[2,3-b]furan-2-acetamide, N-[4-[2-(3,4-dimethoxyphenyl)ethyl]phenyl]-2,3-dihydro-α,3-dioxo] |
| 0.0% | COc1ccc(CCc2ccc(NC(=O)C(=O)c3[nH]c4cc(C)c(C)cc4c3O)cc2)cc1OC [Example 175, 1H-Indole-2-acetamide, N-[4-[2-(3,4-dimethoxyphenyl)ethyl]phenyl]-3-hydroxy-5,6-dimethyl-α-oxo] |

same assay, conditions: Concentration 7.90 E -9 M

| % Inhibition (LDAH) | Compound |
| --- | --- |
| 50.0% | CCCCCCCCCCc1ccc(NC(=O)C(=O)c2oc3cc(OC)c(OC)cc3c2O)cc1 [Example 119, 2-Benzofuranacetamide, N-[4-decylphenyl]-3-hydroxy-5,6-dimethoxy-α-oxo] |

same assay, conditions: Concentration 8.00 E -5 M

| % Inhibition (LDAH) | Compound |
| --- | --- |
| 0.0% | COc1ccc(CCc2ccc(NC(=O)C3CS(=O)(=O)c4ccccc4C3=O)cc2)cc1NC(C)=O (stereo not shown) [Example 50, N-[4-[2-(3-Acetylamino-4-methoxy)ethyl]phenyl]-3,4-dihydro-4-oxo-2H-1-benzothiopyran-3-carboxamide, 1,1-dioxide] |
| 0.0% | COc1ccc(CCc2ccc(NC(=O)C(=O)c3oc4cc(OC)c(OC)cc4c3O)cc2)cc1OC [Example 115, 2-Benzofuranacetamide, N-[4-[2-(3,4-dimethoxyphenyl)ethyl]phenyl]-3-hydroxy-5,6-dimethoxy-α-oxo] |

same assay, conditions: acetone-pentane powder enzyme, 234 nm, 24° C., 5 min preincubation; read-out: Concentration (M) for 50.0 % Inhibition, IC (LDAH)

| IC50 | Compound |
| --- | --- |
| 4.5e-05 M | O=C(Nc1ccc(CCc2ccc(Cl)cc2)cc1)C(=O)C1=C(O)c2ccccc2SC1 [Example 4, N-[4-[2-(4-chlorophenyl)ethyl]phenyl]-4-hydroxy-α-oxo-2H-1-benzothiopyran-3-acetamide] |
| 7.7e-05 M | CCCCCCCCCCc1ccc(NC(=O)C(=O)C2=C(O)c3ccccc3S(=O)(=O)C2)cc1 [Example 9, N-(4-Decylphenyl)-4-hydroxy-α-oxo-2H-1-benzothiopyran-3-acetamide, 1,1-dioxide] |
| 6e-05 M | Nc1ccc(CCc2ccc(NC(=O)C3CS(=O)(=O)c4ccccc4C3=O)cc2)cc1 (stereo not shown) [Example 52, N-[4-[2-(4-Aminophenyl)ethyl]phenyl]-3,4-dihydro-4-oxo-2H-1-benzothiopyran-3-carboxamide, 1,1-dioxide] |
| 1.1e-06 M | COc1ccc(CCc2ccc(NC(=O)c3oc4ccc5ccccc5c4c3O)cc2)cc1OC [Example 103, Naptho[2,1-b]furan-2-carboxamide, 1-hydroxy-N-[4-[2-(3,4-dimethoxyphenyl)ethyl]phenyl]] |
| 5.7e-07 M | COc1ccc(CCc2ccc(NC(=O)C(=O)C3=C(O)c4ccccc4OC3)cc2)cc1OC [Example 152] |
| 1.3e-05 M | N-[4-[3-(3,4-Dihydroxyphenyl)propyl]phenyl]-3,4-dihydro-2H-1-benzothiopyran-3-carboxamide, 1,1-dioxide [Example 22] |

Continued, compound first:

| Compound | IC50 |
| --- | --- |
| O=C(O)c1ccc(CCc2ccc(NC(=O)C3CS(=O)(=O)c4ccccc4C3=O)cc2)cc1 (stereo not shown) [Example 12, 4-[2-[4-[[(3,4-Dihydro-4-oxo-2H-1-benzothiopyran-3-yl)carbonyl]amino]phenyl]ethyl]benzoic acid, 1,1-dioxide] | 3.4e-06 M |
| CN(C)c1ccc(CCc2ccc(NC(=O)C3CS(=O)(=O)c4ccccc4C3=O)cc2)cc1 (stereo not shown) [Example 55] | 6.8e-05 M |
| COc1cccc2c(O)c(C(=O)C(=O)Nc3ccc(CCc4ccc(O)c(O)c4)cc3)oc12 [Example 123, 2-Benzofuranacetamide, N-[4-[2-(3,4-dihydroxyphenyl)ethyl]phenyl]-3-hydroxy-7-methoxy-α-oxo] | 2.5e-05 M |
| CCCCCCCCCCc1ccc(NC(=O)C(=O)c2sc3ccc(Cl)cc3c2O)cc1 [Example 135, Benzo[b]thiophene-2-acetamide, 5-chloro-N-(4-decylphenyl)-3-hydroxy-α-oxo] | 2.5e-05 M |
| O=C(Nc1ccc(CCc2ccc(O)c(O)c2)cc1)C1Oc2c(n(-c3ccccc3)c3ccccc23)C1=O (stereo not shown) [Example 166, 2H-Furo[3,2-b]indole-2-carboxamide, N-[4-[2-(3,4-dihydroxyphenyl)ethyl]phenyl]-3,4-dihydro-3-oxo-4-phenyl] | 2.7e-05 M |
| Cc1cc2[nH]c(C(=O)C(=O)Nc3ccc(CCc4ccc(O)c(O)c4)cc3)c(O)c2cc1C [Example 177, 1H-Indole-2-acetamide, N-[4-[2-(3,4-dihydroxyphenyl)ethyl]phenyl]-3-hydroxy-5,6-dimethyl-α-oxo] | 8e-05 M |
